Assay results taken from PMC9321663, “The DevTox Germ Layer Reporter Platform: An Assay Adaptation of the Human Pluripotent Stem Cell Test” (Toxics, 2022).
Where a name gives a salt, the structure may show the parent alone. Read-outs that look alike come from different tables or passages of the source.

Legend:
[1] = tested on: SOX17 (endoderm marker) in RUES2-GLR cells; experiment: DevTox GLR-Endo assay: decrease in percent SOX17-positive cells (AEID 3094, Sox17_dn); settings: for Hit Call: Table S2, SOX17-positive cells, cutoff 3*bmad; for HIT−CALL: tcpl plot AEID3094, COFF 20.3; for DevTox ACC: Table S2, percent SOX17-positive cells; for DevTox-GLR Endo ACC: activity concentration at cutoff, SOX17-positive cells; for hit call designation (in words): DevTox GLR-Endo prediction against developmental toxicant classification
Outline: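 RUES2-GLR cells under endoderm differentiation exposed to test chemicals for 48 h in total, with 0.2% DMSO solvent control and SB431542 (1 µM) as developmental-toxicant control. Endpoints: decrease in total cell count and in percent SOX17-positive cells; n = 4 biological replicates minimum.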

[2] = tested on: SOX17 (endoderm marker) in RUES2-GLR cells; experiment: DevTox GLR-Endo assay: increase in percent SOX17-positive cells (AEID 3093, Sox17_up); type: cell-based, human; settings: for Emax: Homo sapiens; for HIT−CALL: tcpl plot AEID3093, COFF 20.3
Method: (§1) The total test chemical incubation period was 48 h.
(§2) (Supplementary Materials).

[3] = tested on: SOX2 (ectoderm and pluripotency marker) in RUES2-GLR cells; experiment: DevTox GLR-Endo assay: increase in percent SOX2-positive cells (AEID 3095, Sox2_up); settings: for AC50 / Emax: Homo sapiens; for AC50: read-out: ga (winning model); for Emax: read-out: tp (winning model); for MAX_MEAN: tcpl plot AEID3095, maximum mean response; for MAX_MED: tcpl plot AEID3095, maximum median response
[4] = cited from earlier work; for Classification: developmental toxicant classification (Teratogen / Non-Teratogen) of reference and training chemicals, ref DOI per chemical: 10.1093/toxsci/kft239, 10.1093/toxsci/kfaa014, 10.1177/026119290203000204, 10.1038/s41598-020-59542-x; for DT Class.: developmental toxicant classification; for Development Toxicant Classification: Table S2
RUES2-GLR cells = experiment: DevTox GLR-Endo assay: decrease in total cell count, cytotoxicity (AEID 3098, CellCount_dn); settings: for Emax: Homo sapiens, read-out: Cell Count % Max Inhibition
[5] = tested on: o/c ratio in H9 embryonic stem cells; settings: Teratogen Index, o/c ratio; cited from earlier work
[6] = tested on: SOX17 in H9 human ESC line; settings: SOX17 half-maximal inhibition concentration; read-out: hPST IC50; cited from earlier work
H9 human ESC line = settings: cited from earlier work
[7] = DevTox GLR-Endo assay: decrease in total cell count, cytotoxicity (AEID 3098, CellCount_dn); settings: human
[8] = tested on: BRA (mesoderm marker) in RUES2-GLR cells; experiment: DevTox GLR-Endo assay: increase in percent BRA-positive cells (AEID 3096, Bra_up); type: cell-based, human; settings: for HIT−CALL: tcpl plot AEID3096, COFF 0.774; for MAX_MEAN: tcpl plot AEID3096, maximum mean response; for MAX_MED: tcpl plot AEID3096, maximum median response
Method: as §1, §2

[9] = Homo sapiens, read-out: ga (winning model), tcpl plot AEID3094, gain parameter of winning curve fit (log concentration, µM axis), hit calls only (converted)
[10] = tcpl plot AEID3093, maximum mean response, read-out: MAX_MEAN
[11] = tcpl plot AEID3093, maximum median response, read-out: MAX_MED
[12] = chemicals common with quickPredict
[13] = Homo sapiens, read-out: DevTox % Max Inhibition
[14] = Homo sapiens, read-out: MAX_MEAN
[15] = Homo sapiens, read-out: MAX_MED
[16] = Homo sapiens, read-out: tp (winning model)
[17] = Homo sapiens, 48 h, read-out: DevTox-GLR Endo AC50 (µM), SOX17 half-maximal activity concentration, 48 h exposure
[18] = cytotoxicity half-maximal concentration
[19] = RUES2-GLR cells under directed endoderm differentiation
[20] = read-out: DevTox-GLR Endo AC50, SOX17 half-maximal activity concentration, 48 h exposure

| Structure (SMILES) | AC50 [1, 9] [µM] | Hit Call [1] | HIT−CALL [1] | Emax [2, 10] [%] | Emax [2, 11] [%] | HIT−CALL [2] | AC50 [3] [µM] | Emax [3] [%] | MAX_MEAN [3] [Percent Activity] | MAX_MED [3] [Percent Activity] | Classification [4] | Emax (RUES2-GLR cells) [%] | Emax [1, 13] [%] | Emax [1, 14] [%] | Emax [1, 15] [%] | Emax [1, 16] [%] | DevTox ACC ([1]; 48 h exposure) [µM] | Development Toxicant Classification [4] | Cell Count ACC (RUES2-GLR cells; human, 48 h) [µM] | IC50 [6] [µM] | other results |
| --- | --- | --- | --- | --- | --- | --- | --- | --- | --- | --- | --- | --- | --- | --- | --- | --- | --- | --- | --- | --- | --- |
| CCCCc1oc2ccccc2c1C(=O)c1cc(I)c(OCCN(CC)CC)c(I)c1 [Amiodarone] | 17 | Positive | 1 | 6.18 | 3.59 | 0 | 11.7 | 1.23 | 2.82 | 2.22 | Teratogen | 97.1 |  |  |  |  |  |  |  |  | DT Class. [4, 12]: Pos; quickPredict TI [5]: 5.1 µM |
| CC[C@H](C)C(=O)O[C@H]1C[C@@H](C)C=C2C=C[C@H](C)[C@H](CC[C@@H]3C[C@@H](O)CC(=O)O3)[C@H]21 [Lovastatin] | 11.2 | Positive | 1 | -9.76 | -10.1 | 0 | 36.3 | 13.5 | 21.1 | 14.8 | Teratogen | 95.4 | 102 | 102 | 102 | 123 | 0.9345 | Positive | 0.7145 |  | DevTox-GLR Endo ACC ([1]; 48 h exposure): 0.93 µM; DT Class. [4, 12]: Pos; DevTox-GLR Endo CC (RUES2-GLR cells; human, 48 h): 0.71 µM; quickPredict TI [5]: 5.1 µM |
| Nc1ccn([C@@H]2O[C@H](CO)[C@@H](O)[C@@H]2O)c(=O)n1 [Cytarabine] | 0.557 | Positive | 1 | 12.2 | 12.7 | 0 | 0.582 | 2.27 | 2.89 | 2.91 | Teratogen | 86.7 | 102 | 102 | 102 | 102 | 0.4557 |  | 0.05231 |  | DevTox-GLR Endo ACC ([1]; 48 h exposure): 0.46 µM; DT Class. [4, 12]: Pos; effect on cell count (in words) (RUES2-GLR cells): significant decreases in cell count; DevTox-GLR Endo CC (RUES2-GLR cells; human, 48 h): 0.05 µM; quickPredict TI [5]: 0.054 µM |
| COc1ccc2c(c1)c(CC(=O)O)c(C)n2C(=O)c1ccc(Cl)cc1 [Indomethacin] | 13.2 | Positive | 1 | 0.625 | -1.03 | 0 | 12.9 | 6.38 | 6.48 | 6.65 |  | 92.5 | 101 | 100 | 101 | 101 | 9.385 |  | 8.702 |  | DevTox-GLR Endo ACC ([1]; 48 h exposure): 9.38 µM; DevTox-GLR Endo CC (RUES2-GLR cells; human, 48 h): 8.70 µM; quickPredict TI [5]: 72.7 µM |
| Cc1nc2sccn2c(=O)c1CCN1CCC(=C(c2ccc(F)cc2)c2ccc(F)cc2)CC1 [Ritanserin] | 9.98 | Positive | 1 | -0.644 | -1.38 | 0 | 158 | 4.15 | 2.33 | 1.82 | Teratogen | 94.7 | 102 | 102 | 102 | 102 | 8.389 | Positive |  | 7.3 | AC50 [1, 17]: 9.98 µM; hPST TC50 (H9 human ESC line; [18]): 27 µM; hPST TC50 (H9 human ESC line; hPST cytotoxicity): 27 µM; DT Class. ([4]; chemicals common with hPST): Pos; CC50 at 48 h [7, 19]: 9.47 µM; Cell Count ACC (RUES2-GLR cells; Table S2, 48 h exposure): 6.426 µM; HIT−CALL [8]: 1; MAX_MEAN [8]: 2.65 Percent Activity; MAX_MED [8]: 3.04 Percent Activity |
| C[C@](N)(Cc1ccc(O)c(O)c1)C(=O)O [Methyldopa] | 112 | Positive | 1 | 13.8 | 12.9 | 0 |  |  | 4.03 | 0.534 | Non-Teratogen | 10.2 | 23.5 | 19.9 | 23.5 | 30.9 | 217.84 | Negative | >200 | 272 | hit call designation (in words) [1]: false positive; AC50 [1, 17]: 113 µM; AC50 [1, 20]: 113 µM; hPST TC50 (H9 human ESC line; [18]): 462 µM; hPST TC50 (H9 human ESC line; hPST cytotoxicity): 462 µM; DT Class. ([4]; chemicals common with hPST): Neg; CC50 at 48 h [7, 19]: > 200 µM; HIT−CALL [8]: 0; MAX_MEAN [8]: 0.823 Percent Activity; MAX_MED [8]: 0.851 Percent Activity |
| [H]/N=C(/NCCCCC)N/N=C/c1c[nH]c2ccc(OC)cc12 [Tegaserod Maleate] | 5.32 | Positive | 1 | 6.89 | 6.94 | 0 |  |  | 2.78 | 2.79 | Non-Teratogen | 98.8 | 102 | 102 | 102 | 102 | 4.472 | Negative |  | 4.6 | hit call designation (in words) [1]: false positive; AC50 [1, 17]: 5.32 µM; Emax ([1]; Homo sapiens, read-out: maximum observed effect level class (% max inhibition)): 80 to 100%; hPST TC50 (H9 human ESC line; [18]): 4.5 µM; hPST TC50 (H9 human ESC line; hPST cytotoxicity): 4.5 µM; DT Class. ([4]; chemicals common with hPST): Neg; CC50 at 48 h [7, 19]: 5.06 µM; Cell Count ACC (RUES2-GLR cells; Table S2, 48 h exposure): 4.239 µM; HIT−CALL [8]: 1; MAX_MEAN [8]: 3.57 Percent Activity; MAX_MED [8]: 2.57 Percent Activity |
| Oc1cc(O)c2c(c1)O[C@H](c1ccc(O)c(O)c1)[C@@H](O)C2 [Cianidanol] | 93.3 | Positive | 1 | 6.18 | 7.45 | 0 |  |  | 0.447 | 0.456 |  | 29.6 | 39.8 | 39.3 | 39.8 | 39.4 | 93.5186 | Negative | 180.189 | 97 | SOX17 ACC relative to cytotoxic concentration (in words) [1]: below cytotoxic concentrations; hit call designation (in words) [1]: false positive; AC50 [1, 17]: 93 µM; AC50 [1, 20]: 92.9 µM; hPST TC50 (H9 human ESC line; [18]): 200 µM; hPST TC50 (H9 human ESC line; hPST cytotoxicity): 200 µM; DT Class. ([4]; chemicals common with hPST): Neg; CC50 at 48 h [7, 19]: 194 µM; HIT−CALL [8]: 0; MAX_MEAN [8]: 1.32 Percent Activity; MAX_MED [8]: 1.37 Percent Activity |
| O=C(O)c1cccnc1 [Niacin, Nicotinic acid] |  | Negative | 0 | 11.3 | 11.4 | 0 |  |  | 0.611 | 0.561 | Non-Teratogen | 10.8 | 6.06 | 5.21 | 6.06 |  |  | Negative | >200 | > 200 | AC50 [1, 17]: > 200 µM; hPST TC50 (H9 human ESC line; [18]): >200 µM; hPST TC50 (H9 human ESC line; hPST cytotoxicity): > 200 µM; DT Class. ([4]; chemicals common with hPST): Neg; CC50 at 48 h [7]: > 200 µM; HIT−CALL [8]: 0; MAX_MEAN [8]: 0.818 Percent Activity; MAX_MED [8]: 0.865 Percent Activity |
